# Data from ChEMBL document CHEMBL1126932, “Mechanism-based inhibitors of prostaglandin omega-hydroxylase: (R)- and (S)-12-hydroxy-16-heptadecynoic acid and 2,2-dimethyl-12-hydroxy-16-heptadecynoic acid” (J Med Chem, 1993).
# Biological target: T1, Cytochrome P450 4A4 (Oryctolagus cuniculus, UniProt P10611)
# T1 sequence (P10611 whole entry): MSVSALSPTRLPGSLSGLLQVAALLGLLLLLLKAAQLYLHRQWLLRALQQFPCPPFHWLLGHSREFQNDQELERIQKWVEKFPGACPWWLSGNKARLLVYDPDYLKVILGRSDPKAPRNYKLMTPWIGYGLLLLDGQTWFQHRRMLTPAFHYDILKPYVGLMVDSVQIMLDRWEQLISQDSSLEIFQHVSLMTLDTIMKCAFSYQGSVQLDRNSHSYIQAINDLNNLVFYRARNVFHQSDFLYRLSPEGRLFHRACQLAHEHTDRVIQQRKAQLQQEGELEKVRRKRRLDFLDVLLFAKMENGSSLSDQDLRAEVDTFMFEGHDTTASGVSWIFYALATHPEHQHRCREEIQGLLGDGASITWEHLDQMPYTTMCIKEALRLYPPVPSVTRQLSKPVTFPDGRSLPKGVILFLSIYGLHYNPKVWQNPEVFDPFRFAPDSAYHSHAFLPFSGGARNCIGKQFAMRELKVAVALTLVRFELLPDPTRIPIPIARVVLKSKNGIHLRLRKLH
# Assay: Inactivation of prostaglandin E1 omega-hydroxylase (Cytochrome P450 4A4) in rabbit lung
# Type: tissue-based
row,Ki [µM],Compound
1,3.6,C#CCCC[C@H](O)CCCCCCCCCCC(=O)O
2,4.9,C#CCCCC(O)CCCCCCCCCC(C)(C)C(=O)O (centres undefined)
3,4.8,C#CCCCC(O)CCCCCCCCCCC(=O)O (racemic)
4,1.8,C#CCCC[C@@H](O)CCCCCCCCCCC(=O)O
